Each structure is given as a SMILES string.

Experimental findings from patent US20040115626A1, “Human pgc-1 promoter” (priority 2000, published 2004) are described below.

For one assay, the system named is L6 cells. The assay can be described thus: Measurement of mitochondrial enzymatic activity (WST-1 mitochondrial dehydrogenase colorimetric assay) in L6 cells. It counts as cell-based, rat. Particulars: for activity at 1 µM / activity at 5 µM / activity at 25 µM: Rattus norvegicus, 24 hours, relative to no compound. How it is done: Rat myoblast L6 (ATCC, CRL-1458) was maintained Dulbecco's modified Eagle medium containing 10% fetal bovine serum (GIBCO BRL, USA, 11965-092) and cultured in a wet air containing 5% CO2 at 37° C.
For the investigation of mitochondrial enzymatic activity of cells, a reagent WST-1 (DOJINDO, 342-06451) was used, which enabled the measurement of mitochondrial dehydrogenase activity of living cells by colorimetric assay method. Specifically, L6 cells were cultured in a tissue culture dish having a diameter of 10 cm and after reached confluent, the cells were transferred into a 96-well tissue culture dish. At that time, the medium was changed to Dulbecco's modified Eagle medium containing no Phenol Red (GIBCO BRL, USA, 21063-029). […] After the addition of each compound and 24 hours of treatment, the medium containing the compound was sucked and discarded and thereto were added 100 μl of Dulbecco's modified Eagle medium containing no Phenol Red and no fetal bovine serum and 10 μL of PBS containing 5 mM WST-1 and 0.2 mM 1-Methoxy PMS (DOJINDO, 345-04001). After 4 hours of reaction at 37° C., absorbance was measured at a measuring wavelength of 450 nm. In this regard, all the activity measurements were carried out three times per measurement and each experiment was repeated at least twice to confirm the reproducibility.
Tables 2(a) and 2(b) show the results of 9-cis-RETINOIC ACID and the compounds obtained in Example 6, respectively. Each value was expressed by a relative value wherein the absorbance of the sample containing no cell was subtracted as a background from each absorbance and the value in the case of adding no compound was regarded as 1. […] As mentioned above, it was shown that substances stimulating an hPGC-1 promoter activity have an action to activate mitochondrial enzymes.
For orientation: Tetrazolium dyes change colour on reduction, which living cells bring about.

The next assay deals with hPGC-1 promoter. Put plainly: hPGC-1 promoter luciferase reporter assay in transiently transfected L6 cells. It counts as cell-based. Conditions: for activity at 1 µM: 1 μM compound; for activity at 1 µM / activity at 5 µM / activity at 25 µM: reporter vector phPGC1(2.2)Luc, luciferase activity relative to no compound; for activity at 5 µM: 5 μM compound; for activity at 25 µM: 25 μM compound; for promoter activating ability relative to the case of adding no compound: at compound final concentration of 1 μM, 5 μM or 25 μM, phPGC1(2.2)Luc. Here is the method: Various reporter vectors shown in FIG. 1 were transiently transfected into L6 cells. Specifically, L6 cells were cultured in a tissue culture dish having a diameter of 10 cm and at the time when it was reached 50% confluent, 5 μg of the above plasmid and 1.5 μg of a plasmid pCH110 containing β-galactosidase gene controlled by β-actin promoter were used in combination in order to standardize gene transfection efficiency and the plasmids were introduced into the cells using FuGENE™6 (BOEHRINGER MANNHEIM, USA, 1814 443). After 24 hours, the cells were transferred into a 96-well culture dish, followed by additional 6 hours of culture. From the reports until now, since it is known that 9-cis-RETINOIC ACID (one of vitamin A acids) increases the expression of PGC-1 gene derived from mouse in cells (Cell, 92, 829-839 (1998)), 9-cis-RETINOIC ACID (SIGMA, USA, R4643) having a final concentration of 1 μM was added and the mixture was treated for 24 hours. Then, the cells were dissolved with a cell dissolving liquid LCβ (Toyo Ink, Japan) and luciferase activity thereof was measured using a PicaGene Luminescent Kit (Toyo Ink, Japan, 309-04321). By the way, all the activity measurements were carried out three times per measurement and each experiment was repeated at least twice to confirm the reproducibility.
Each reporter activity was standardized by β-galactosidase activity and expressed by a relative value wherein the value in the case of adding no compound was regarded as 1. In L6 cells, hPGC-1 reporter was increased a maximum of about 2.5 times by the treatment with 9-cis-RETINOIC ACID and thus a result consistent with the report that the expression of PGC-1 gene derived from mouse was enhanced by 9-cis-RETINOIC ACID was obtained.
Using the reporter vector phPGC1(2.2)Luc in the method described in Example 5, screening of a compound stimulating an hPGC-1 promoter activity was carried out wherein commercially available compounds were used as test compounds. […] By the way, Compound B, Compound E and Compound G are commercially available as the code number 4K@UH1-646 of INTERBIOSCREEN, as the code number MS0447 of MARLIN and as the code number A1773/0075171 of ZELINSKY, respectively and are 5-(4-fluorobenzylidene)-2,4-thiazolidinedione, 5-(4-bromobenzylidene)-2,4-thiazolidinedione, 2-(3-aminophenyl)-5-benzoyl-(1H)-benzimidazole, respectively.
A general note: In a reporter assay the amount or activity of a reporter protein is the signal.

With `CC1=C(/C=C/C(C)=C\C=C\C(C)=C\C(=O)O)C(C)(C)CCC1` [9-cis-RETINOIC ACID, reference compound], the “mitochondrial enzymatic activity (statement in words)” value in the assay on L6 cells (24 hours treatment, Dunnett test) is on record as “increased mitochondrial enzymatic activity with a significant difference”. Further, the “increase of hPGC-1 reporter activity (maximum)” value in the assay with hPGC-1 promoter (1 μM, 24 hours, normalized with β-galactosidase, no compound = 1, maximum over the reporter vectors) was “about 2.5 times”. In the assay on hPGC-1 promoter (1 μM, 24 hours, reporter vector hPGC1(0.1)Luc), the reporter activity entry was “completely lost”. For the same compound, the “activity enhancement (9-cis-RETINOIC ACID responsibility) of reporter” value with hPGC-1 promoter (1 μM, 24 hours, reporter vectors hPGC1(0.2)Luc to hPGC1(5.2)Luc) is on record as “strongly observed”.
`O=C1NC(=O)C(=Cc2ccc(Br)cc2)S1` [Compound E, 5-(4-bromobenzylidene)-2,4-thiazolidinedione]: in the assay with L6 cells, the activity at 1 µM was found to be 102%, the activity at 5 µM was 141% and the activity at 25 µM was 285%. Also, in the assay on hPGC-1 promoter, the activity at 1 µM came to 146%, the activity at 5 µM amounted to 208%, the activity at 25 µM was 157% and the “promoter activating ability relative to the case of adding no compound” value is listed as “more than twice”.
Regarding `Nc1cccc(-c2nc3cc(C(=O)c4ccccc4)ccc3[nH]2)c1` [Compound G, 2-(3-aminophenyl)-5-benzoyl-(1H)-benzimidazole], in the assay on L6 cells, the activity at 1 µM was found to be 80%, the activity at 5 µM stood at 102% and the activity at 25 µM was determined as 176%. Further, in the assay on hPGC-1 promoter, the activity at 1 µM was determined as 207%, the activity at 5 µM is 175%, the activity at 25 µM stood at 91% and the “promoter activating ability relative to the case of adding no compound” value was “more than twice”.
In the case of `O=C1NC(=O)C(=Cc2ccc(F)cc2)S1` [Compound B, 5-(4-fluorobenzylidene)-2,4-thiazolidinedione], in the assay with L6 cells, the activity at 1 µM turned out to be 94%, the activity at 5 µM stood at 121% and the activity at 25 µM amounted to 175%. Further, in the assay on hPGC-1 promoter, the activity at 1 µM amounted to 160%, the activity at 5 µM amounted to 203%, the activity at 25 µM is 202% and the “promoter activating ability relative to the case of adding no compound” value is recorded as “more than twice”.
